Laboratory results published in US20080269213A1, “8-Hydroxyquinoline compounds and methods thereof” (Wyeth, priority 2006, published 2008).
“And” between values parts separate entries of the source, which are not always exact repeats. Identical values can stand only once. Like-named read-outs stand apart in the source and are kept apart here.

Key:
Agg-1 = biological target: T1, Agg-1 (Homo sapiens, UniProt O75173); experiment: Agg-1 FRET assay; format: biochemical; settings: for inhibition at […]: @ 2500 nM
T1 sequence (O75173 213-837): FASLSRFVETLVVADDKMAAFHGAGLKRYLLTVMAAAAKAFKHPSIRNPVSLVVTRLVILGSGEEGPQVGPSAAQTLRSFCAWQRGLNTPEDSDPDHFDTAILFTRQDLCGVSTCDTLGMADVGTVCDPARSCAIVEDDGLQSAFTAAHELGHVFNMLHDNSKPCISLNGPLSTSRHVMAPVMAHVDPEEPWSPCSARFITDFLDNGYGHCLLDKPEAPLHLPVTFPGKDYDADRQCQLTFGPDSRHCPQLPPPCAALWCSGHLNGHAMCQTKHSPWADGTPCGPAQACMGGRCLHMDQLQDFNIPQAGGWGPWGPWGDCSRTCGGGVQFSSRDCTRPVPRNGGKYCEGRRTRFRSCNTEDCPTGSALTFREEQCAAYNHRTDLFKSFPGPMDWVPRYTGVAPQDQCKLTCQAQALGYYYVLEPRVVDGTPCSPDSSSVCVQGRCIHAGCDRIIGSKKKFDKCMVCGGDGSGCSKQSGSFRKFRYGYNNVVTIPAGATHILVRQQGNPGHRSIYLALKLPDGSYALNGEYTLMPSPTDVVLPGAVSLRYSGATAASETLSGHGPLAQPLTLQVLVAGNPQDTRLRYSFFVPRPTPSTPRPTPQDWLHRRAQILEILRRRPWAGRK
From the text: The Agg-1/Agg-2 FRET data for N-[(8-hydroxyquinolin-2-yl)(phenyl)methyl]-2-phenoxyacetamide and 2-{[(phenoxyacetyl)amino](phenyl)methyl}quinolin-8-yl phenoxyacetate is presented in Table 1.

[1] = biological target: T2, recombinant human Aggrecanase-2 Agg2-Phe628 (Homo sapiens, UniProt Q9UNA0); experiment: Aggrecanase 2 in vitro enzyme assay (Agg-2 FRET, quenched fluorescent peptide substrate); format: biochemical; set-up: purified recombinant human Aggrecanase-2 Agg2-Phe628 (MW=41,737); This is a truncated form of full-length human aggrecanase-2; made in house; host or cells: CHO cells; settings: for Agg-2 FRET Median PCT INHIB: concentration not given; for inhibition at 200 µM: read-out: Agg-2 FRET % (printed in FRET IC50 column)
T2 sequence (Q9UNA0 262-628 limits assumed): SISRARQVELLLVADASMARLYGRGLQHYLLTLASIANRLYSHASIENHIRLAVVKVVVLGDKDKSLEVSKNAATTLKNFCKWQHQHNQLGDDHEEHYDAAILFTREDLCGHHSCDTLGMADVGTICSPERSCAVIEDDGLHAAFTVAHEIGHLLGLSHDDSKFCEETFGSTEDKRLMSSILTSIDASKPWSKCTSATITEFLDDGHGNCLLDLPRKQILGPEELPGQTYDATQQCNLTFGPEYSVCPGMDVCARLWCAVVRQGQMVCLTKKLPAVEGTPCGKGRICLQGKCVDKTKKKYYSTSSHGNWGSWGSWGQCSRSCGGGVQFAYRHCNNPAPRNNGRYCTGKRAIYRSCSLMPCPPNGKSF
In short: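 Continuous FRET assay with purified truncated human Aggrecanase-2 Agg2-Phe628 (CHO-expressed, 0.5 μg/ml final) and brevican-derived Abz/Dnp peptide (25 μM final) in 50 mM HEPES pH 7.5, 100 mM NaCl, 5 mM CaCl2, 0.1% CHAPS, 5% glycerol. Enzyme preincubated with compound before substrate; fluorescence (ex 340/em 420 nm) followed kinetically 40 min at 30 °C.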

[2] = read-out: Agg-2 FRET Median IC50

SMILES | IC50 (Agg-1; read-out: Agg1 IC50) [µM] | IC50 ([1]; read-out: Agg2 IC50) [µM] | further results
CS(=O)(=O)Nc1cccc(C(NC(=O)COc2ccccc2)c2cc(Cl)c3cccnc3c2OS(C)(=O)=O)c1 (stereo not drawn) [Example 203, 5-chloro-7-{{3-[(methylsulfonyl)amino]phenyl}[(phenoxyacetyl)amino]methyl}quinolin-8-yl methanesulfonate] | > 20 | > 30 | Agg-2 FRET Median PCT INHIB [1]: 20%
O=C(COc1ccc(Br)cc1)NC(c1ccccc1Cl)c1cc(Cl)c2cccnc2c1O (stereo not drawn) [Example 220, 2-(4-bromophenoxy)-N-[(5-chloro-8-hydroxyquinolin-7-yl)(2-chlorophenyl)methyl]acetamide] | 22 to 67 | 2.4 | 
O=C(COc1ccc2c(c1)OCO2)NC(c1ccccc1Cl)c1cc(Cl)c2cccnc2c1O (stereo not drawn) [Example 221, 2-(1,3-benzodioxol-5-yloxy)-N-[(5-chloro-8-hydroxyquinolin-7-yl)(2-chlorophenyl)methyl]acetamide] | 7.4 to 20 | 1 | 
O=C(CNCc1cccc2ccccc12)NC(c1ccccc1)c1cc(Br)c2cccnc2c1O (stereo not drawn) [Example 222, N-[(5-bromo-8-hydroxyquinolin-7-yl)(phenyl)methyl]-N2-(1-naphthylmethyl)glycinamide] | 7.4 to 20 | 1.2 to 3.7 | 
O=C(CNCc1ccccc1)NC(c1ccccc1)c1cc(Cl)c2cccnc2c1O (stereo not drawn) [Example 223, N2-benzyl-N-[(5-chloro-8-hydroxyquinolin-7-yl)(phenyl)methyl]glycinamide] | > 20 | 3.75 | IC50 [1, 2]: 3.75 µM
O=C(CNCc1cccc2ccccc12)NC(c1ccccc1)c1cc(Cl)c2cccnc2c1O (stereo not drawn) [Example 224, N-[(5-chloro-8-hydroxyquinolin-7-yl)(phenyl)methyl]-N2-(1-naphthylmethyl)glycinamide] | 17.5 | 1.56 | IC50 [1, 2]: 1.56 µM
O=C(CNCc1ccc2c(c1)OCO2)NC(c1ccccc1)c1cc(Cl)c2cccnc2c1O (stereo not drawn) [Example 226, N^2-(1,3-benzodioxol-5-ylmethyl)-N-[(5-chloro-8-hydroxyquinolin-7-yl)(phenyl)methyl]glycinamide] | > 11 | 2.75 | IC50 [1, 2]: 2.75 µM
O=C(CNCc1ccccn1)NC(c1ccccc1)c1cc(Cl)c2cccnc2c1O (stereo not drawn) [Example 227, N-[(5-chloro-8-hydroxyquinolin-7-yl)(phenyl)methyl]-N2-(pyridin-2-ylmethyl)glycinamide] | > 50 | 3.87 | 
O=C(CNCc1cccnc1)NC(c1ccccc1)c1cc(Cl)c2cccnc2c1O (stereo not drawn) [Example 228, N-[(5-chloro-8-hydroxyquinolin-7-yl)(phenyl)methyl]-N2-(pyridin-3-ylmethyl)glycinamide] | > 67 | > 11 | Agg-2 FRET Median PCT INHIB [1]: 32%
O=C(CNCc1ccncc1)NC(c1ccccc1)c1cc(Cl)c2cccnc2c1O (stereo not drawn) [Example 229, N[(5-chloro-8-hydroxyquinolin-7-yl)(phenyl)methyl]-N2-(pyridin-4-ylmethyl)glycinamide] | > 67 | > 11 | Agg-2 FRET Median PCT INHIB [1]: 29%
O=C(CNCc1ccc(-c2ccccc2)cc1)NC(c1ccccc1)c1cc(Cl)c2cccnc2c1O (stereo not drawn) [Example 230, N^2-(biphenyl-4-ylmethyl)-N-[(5-chloro-8-hydroxyquinolin-7-yl)(phenyl)methyl]glycinamide] | > 20 | 1.29 | 
O=C(CNCc1cccc2ccccc12)NC(c1ccccc1Cl)c1cc(Cl)c2cccnc2c1O (stereo not drawn) [Example 231, N-[(5-chloro-8-hydroxyquinolin-7-yl)(2-chlorophenyl)methyl]-N2-(1-naphthylmethyl)glycinamide] | ~20 | 1.37 | 
O=C(CNCc1ccc2c(c1)OCO2)NC(c1ccccc1Cl)c1cc(Cl)c2cccnc2c1O (stereo not drawn) [Example 232, N2-(1,3-benzodioxol-5-ylmethyl)-N-[(5-chloro-8-hydroxyquinolin-7-yl)(2-chlorophenyl)methyl]glycinamide] | 13.7 | 1.8 | 
O=C(COc1ccccc1)NC(c1ccccc1)c1ccc2cccc(O)c2n1 (stereo not drawn) [Example 276, N-[(8-hydroxyquinolin-2-yl)(phenyl)methyl]-2-phenoxyacetamide] |  |  | IC50 (Agg-1; read-out: FRET IC50 Agg-1): 15 µM; inhibition at 200 µM [1]: 32%
O=C(COc1ccccc1)NC(c1ccccc1)c1ccc2cccc(OC(=O)COc3ccccc3)c2n1 (stereo not drawn) [Example 277, 2-{[(phenoxyacetyl)amino](phenyl)methyl}quinolin-8-yl phenoxyacetate] |  |  | IC50 (Agg-1; read-out: FRET IC50 Agg-1): 4 µM; inhibition at 200 µM [1]: 52%
O=C(COc1ccccc1)NC(c1cccc2c1OCO2)c1cc(Cl)c2cccnc2c1O (stereo not drawn) [N-[1,3-benzodioxol-4-yl(5-chloro-8-hydroxyquinolin-7-yl)methyl]-2-phenoxyacetamide] |  | 1.4 | inhibition at 7.4 µM (Agg-1; @ 7400 nM, read-out: Agg1 %): 54%
O=C(COc1ccccc1)NC(CCc1ccccc1)c1cc(Cl)c2cccnc2c1O (stereo not drawn) [N-[1-(5-chloro-8-hydroxyquinolin-7-yl)-3-phenylpropyl]-2-phenoxyacetamide] |  | 1.7 | inhibition at 22 µM (Agg-1; @ 22000 nM, read-out: Agg1 %): 56%

The next lines start with results.

IC50 (Agg-1; read-out: Agg1 IC50) [µM] | IC50 ([1]; read-out: Agg2 IC50) [µM] | SMILES | further results
> 2 | 4.59 | Nc1cccc(C(NC(=O)COc2ccccc2)c2cc(Cl)c3cccnc3c2O)c1 (stereo not drawn) [Example 202, N-[(3-aminophenyl)(5-chloro-8-hydroxyquinolin-7-yl)methyl]-2-phenoxyacetamide] | IC50 [1, 2]: 4.59 µM and 4.36 µM
> 20 | 3.76 | CC(=O)Nc1cccc(C(NC(=O)COc2ccccc2)c2cc(Cl)c3cccnc3c2O)c1 (stereo not drawn) [Example 204, N-[[3-(acetylamino)phenyl](5-chloro-8-hydroxyquinolin-7-yl)methyl]-2-phenoxyacetamide] | IC50 [1, 2]: 3.76 µM
~20 | 1.47 | O=C(CCl)Nc1cccc(C(NC(=O)COc2ccccc2)c2cc(Cl)c3cccnc3c2O)c1 (stereo not drawn) [Example 205, 2-chloro-N-(3-{(5-chloro-8-hydroxyquinolin-7-yl)[(phenoxyacetyl)amino]methyl}phenyl)acetamide] | 
22 to 67 | 2.9 | CN(C)CC(=O)Nc1cccc(C(NC(=O)COc2ccccc2)c2cc(Cl)c3cccnc3c2O)c1 (stereo not drawn) [Example 206, N-(3-{(5-chloro-8-hydroxyquinolin-7-yl)[(phenoxyacetyl)amino]methyl}phenyl)-N2,N2-dimethylglycinamide] | 
22 to 67 | 3.5 | CNCC(=O)Nc1cccc(C(NC(=O)COc2ccccc2)c2cc(Cl)c3cccnc3c2O)c1 (stereo not drawn) [Example 207, N-(3-{(5-chloro-8-hydroxyquinolin-7-yl)[(phenoxyacetyl)amino]methyl}phenyl)-N-2-methylglycinamide] | 
 | 4.48 | O=C(O)Cc1cccc(C(NC(=O)COc2ccccc2)c2cc(Cl)c3cccnc3c2O)c1 (stereo not drawn) [Example 208, (3-{(5-chloro-8-hydroxyquinolin-7-yl)[(phenoxyacetyl)amino]methyl}phenyl)acetic acid] | inhibition at […] (Agg-1; read-out: Agg1 %): 37%; IC50 [1, 2]: 4.48 µM
 | 18 | O=C(COc1ccc(Br)cc1)NC(c1ccccc1)c1cc(Cl)c2cccnc2c1O (stereo not drawn) [Example 209, 2-(4-bromophenoxy)-N-[(5-chloro-8-hydroxyquinolin-7-yl)(phenyl)methyl]acetamide] | inhibition at […] (Agg-1; read-out: Agg1 %): 44%
> 22 | 1.56 | O=C(COc1ccccc1)NC(c1ccc2c(c1)OCO2)c1cc(Cl)c2cccnc2c1O (stereo not drawn) [N-[1,3-benzodioxol-5-yl(5-chloro-8-hydroxyquinolin-7-yl)methyl]-2-phenoxyacetamide] | IC50 [1, 2]: 1.56 µM
